# PMC2467525 (Acta Crystallographica Section D: Biological Crystallography, 2008)
# Molecular target: PvlArgDC (pyruvoyl-dependent arginine decarboxylase) (Methanocaldococcus jannaschii, UniProt Q57764)
# Assay: X-ray crystal structure, […] A
# Assay type: binding
# Conditions: cocrystallized with 1-2 mM arginine, pH 6.7-7.3, 295 K; agmatine in all six active sites
# Chain of PvlArgDC (pyruvoyl-dependent arginine decarboxylase) (Q57764 53-165): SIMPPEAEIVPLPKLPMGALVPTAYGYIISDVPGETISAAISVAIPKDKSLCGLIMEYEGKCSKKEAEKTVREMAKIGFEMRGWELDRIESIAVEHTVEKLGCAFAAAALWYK
# Chain of PvlArgDC (pyruvoyl-dependent arginine decarboxylase) (Q57764 1-52): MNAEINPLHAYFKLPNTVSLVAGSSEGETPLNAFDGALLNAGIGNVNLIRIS
smiles,measurement,value
N=C(N)NCCCCN [agmatine],"X-ray crystal structure, 2.0 A",all six protomers were fully processed and contained the product agmatine at the active site
